# Results as given in ChEMBL document CHEMBL1136111 (Bioorg Med Chem Lett, 2003).
# Key:
# [1] = test system: Enterococcus faecium; experiment: Minimum inhibitory concentration against Enterococcus faecium (VS; Vancomycin sensitive) EF1; format: functional
# [2] = test system: Staphylococcus aureus; experiment: Minimum inhibitory concentration against Staphylococcus aureus (MRCS; Methicillin resistant, ciprofloxacin sensitive) MI300; format: functional
# [3] = test system: Staphylococcus aureus; experiment: Minimum inhibitory concentration against Staphylococcus aureus (MRCR; Methicillin resistant, ciprofloxacin resistant) MI339
# [4] = test system: Proteus mirabilis; experiment: Minimum inhibitory concentration against Proteus mirabilis PR91; format: functional
# [5] = test system: Enterobacter cloacae; experiment: Minimum inhibitory concentration against Enterobacter cloacae AE63; format: functional
# [6] = test system: Staphylococcus aureus; experiment: Minimum inhibitory concentration against Staphylococcus aureus (MSCS; Methicillin sensitive, ciprofloxacin sensitive) MI246; format: functional
# [7] = test system: Pseudomonas aeruginosa; experiment: Minimum inhibitory concentration against Pseudomonas aeruginosa PS96; format: functional
# [8] = test system: Escherichia coli; experiment: Minimum inhibitory concentration against Escherichia coli DC0; format: functional
# [9] = test system: Enterococcus faecium; experiment: Minimum inhibitory concentration against Enterococcus faecium (VR; Vancomycin resistant) EF12; format: functional
# [10] = test system: Staphylococcus epidermidis; experiment: Minimum inhibitory concentration against Staphylococcus epidermidis (MSCR; Methicillin sensitive, ciprofloxacin resistant) SE48; format: functional
# [11] = test system: Staphylococcus aureus; experiment: Minimum inhibitory concentration against Staphylococcus aureus (MSCS; Methicillin sensitive, ciprofloxacin sensitive) MI273; format: functional
# [12] = test system: Staphylococcus aureus; experiment: Minimum inhibitory concentration against Staphylococcus aureus (MSCR; Methicillin sensitive, ciprofloxacin resistant) MI345; format: functional
# [13] = test system: Streptococcus pyogenes; experiment: Minimum inhibitory concentration against Streptococcus pyogenes STA2; format: functional
# [14] = test system: Klebsiella pneumoniae; experiment: Minimum inhibitory concentration against Klebsiella pneumoniae KL21; format: functional
# [15] = test system: Escherichia coli; experiment: Minimum inhibitory concentration against Escherichia coli DC2; format: functional
# [16] = test system: Moraxella catarrhalis; experiment: Minimum inhibitory concentration against Moraxella catarrhalis MC2; format: functional
# [17] = test system: Streptococcus viridans; experiment: Minimum inhibitory concentration against Streptococcus viridans STV1; format: functional
# [18] = test system: Klebsiella pneumoniae; experiment: Minimum inhibitory concentration against Klebsiella pneumoniae (CR; Ciprofloxacin resistant) KL328; format: functional
# [19] = test system: Enterococcus faecalis; experiment: Minimum inhibitory concentration against Enterococcus faecalis STD44
# [20] = test system: Staphylococcus saprophyticus; experiment: Minimum inhibitory concentration against Staphylococcus saprophyticus SS276; format: functional
# [21] = test system: Streptococcus pneumoniae; experiment: Minimum inhibitory concentration against Streptococcus pneumoniae (PS; Penicillin sensitive) STP6301; format: functional
# [22] = biological target: DNA topoisomerase II (Homo sapiens, UniProt P11388+Q02880); experiment: Inhibitory activity against mammalian DNA topoisomerase II; format: protein assay
# [23] = biological target: DNA gyrase (Escherichia coli); experiment: Inhibitory activity against quinolone resistant gyrase in Escherichia coli
# [24] = test system: Escherichia coli; experiment: Minimum inhibitory concentration against Escherichia coli ES142; format: functional
# [25] = test system: Streptococcus pneumoniae; experiment: Minimum inhibitory concentration against Streptococcus pneumoniae (PR; Penicillin resistant) STP51; format: functional
# [26] = biological target: DNA gyrase (Escherichia coli); experiment: Inhibitory activity against wild type gyrase in Escherichia coli
# [27] = test system: Enterococcus faecium; experiment: Minimum inhibitory concentration against Enterococcus faecium (VR; Vancomycin resistant) EF12; MIC (ug/mL) No growth; format: functional, organism-based
# [28] = test system: Streptococcus pneumoniae; experiment: Minimum inhibitory concentration against Streptococcus pneumoniae PS; Penicillin sensitive) STP64; format: functional
# [29] = test system: Enterococcus faecalis; experiment: Minimum inhibitory concentration against Enterococcus faecalis STD44; MIC (ug/mL) No growth
# [30] = test system: Streptococcus pneumoniae; experiment: Minimum inhibitory concentration against Streptococcus pneumoniae (PS; Penicillin sensitive) STP6301; MIC (ug/mL) No growth; format: functional, organism-based
# [31] = test system: Enterobacter cloacae; experiment: Minimum inhibitory concentration against Enterobacter cloacae AE63; MIC (ug/mL) No growth; format: functional, organism-based
SMILES,MIC [1],MIC [2],MIC [3],MIC [4],MIC [5],MIC [6],MIC [7],MIC [8],MIC [10],MIC [11],MIC [12],MIC [13],MIC [14],MIC [15],MIC [16],MIC [17],MIC [18],MIC [20],IC50 [22],IC50 [23],other results
C[C@H]1COc2c(N3CCN(C)CC3)c(F)cc3c(=O)c(C(=O)O)cn1c23.C[C@H]1COc2c(N3CCN(C)CC3)c(F)cc3c(=O)c(C(=O)O)cn1c23.O [LEVOFLOXACIN],0.25 µg/mL,0.12 µg/mL,2 µg/mL,0.06 µg/mL,0.008 µg/mL,0.12 µg/mL,0.5 µg/mL,0.25 µg/mL,2 µg/mL,0.12 µg/mL,2 µg/mL,0.5 µg/mL,< 0.004 µg/mL,0.25 µg/mL,0.03 µg/mL,0.25 µg/mL,4 µg/mL,0.12 µg/mL,,,MIC [9]: 1 µg/mL; MIC [19]: 0.25 µg/mL
C[C@H]1COc2c(N3CC[C@@H](C(C)(C)N)C3)ccc3c(=O)c(C(=O)O)cn1c23,1 µg/mL,0.063 µg/mL,2 µg/mL,4 µg/mL,0.25 µg/mL,0.063 µg/mL,4 µg/mL,4 µg/mL,1 µg/mL,0.125 µg/mL,2 µg/mL,0.016 µg/mL,0.031 µg/mL,0.125 µg/mL,0.063 µg/mL,1 µg/mL,> 8 µg/mL,0.031 µg/mL,150 µg/mL,> 102 µg/mL,MIC [21]: 0.016 µg/mL; MIC [9]: 1 µg/mL; MIC [24]: 0.5 µg/mL; MIC [25]: 0.5 µg/mL; IC50 [26]: 3.2 µg/mL; MIC [19]: 0.125 µg/mL
C[C@H]1COc2c(N3CCC[C@H](N)C3)ccc3c(=O)c(C(=O)O)cn1c23,> 32 µg/mL,2 µg/mL,> 32 µg/mL,2 µg/mL,0.25 µg/mL,2 µg/mL,> 32 µg/mL,16 µg/mL,> 32 µg/mL,4 µg/mL,> 32 µg/mL,> 32 µg/mL,0.25 µg/mL,2 µg/mL,2 µg/mL,> 32 µg/mL,> 32 µg/mL,16 µg/mL,> 500 µg/mL,> 500 µg/mL,MIC [21]: > 32 µg/mL; MIC [27]: No growth; MIC [24]: 1 µg/mL; MIC [28]: > 32 µg/mL; IC50 [26]: 63 µg/mL; MIC [29]: No growth
C[C@H](N)[C@@H]1CCN(c2ccc3c(=O)c(C(=O)O)cn4c3c2OC[C@@H]4C)C1,1 µg/mL,0.063 µg/mL,2 µg/mL,2 µg/mL,0.125 µg/mL,0.031 µg/mL,1 µg/mL,2 µg/mL,1 µg/mL,0.125 µg/mL,1 µg/mL,0.016 µg/mL,0.016 µg/mL,0.063 µg/mL,0.125 µg/mL,0.125 µg/mL,> 8 µg/mL,0.125 µg/mL,38 µg/mL,51.2 µg/mL,MIC [9]: 1 µg/mL; MIC [24]: 0.5 µg/mL; MIC [25]: 0.063 µg/mL; IC50 [26]: 6.4 µg/mL; MIC [30]: No growth; MIC [19]: 0.031 µg/mL
C[C@H]1COc2c(N3CCN(C)CC3)ccc3c(=O)c(C(=O)O)cn1c23,> 32 µg/mL,4 µg/mL,> 32 µg/mL,8 µg/mL,,4 µg/mL,> 32 µg/mL,> 32 µg/mL,> 32 µg/mL,8 µg/mL,> 32 µg/mL,4 µg/mL,1 µg/mL,16 µg/mL,4 µg/mL,32 µg/mL,> 32 µg/mL,4 µg/mL,250 µg/mL,> 500 µg/mL,MIC [31]: No growth; MIC [21]: 16 µg/mL; MIC [27]: No growth; MIC [24]: 8 µg/mL; MIC [28]: 16 µg/mL; MIC [25]: 32 µg/mL; IC50 [26]: 31 µg/mL; MIC [29]: No growth
